What was measured:
Candida-Zellen = test: Antimycotic in-vivo activity (oral) in mouse candidosis; set-up: species or system Mäuse vom Typ SPF-CF1; conditions: 50-100 mg/kg each 1 h before and 7 h after i.v. infection, untreated controls about 5 % survival on day 6 p.i.
Experimental: Antimykotische in-vivo-Wirksamkeit (oral) bei Mäuse-Candidose
Mäuse vom Typ SPF-CF1 wurden intravenös mit 1-2 x 10^6 logarithmisch wachsenden Candida-Zellen, die in physiologischer Kochsalzlösung suspendiert waren, infiziert. Eine Stunde vor und sieben Stunden nach der Infektion werden die Tiere mit jeweils 50-100 mg/kg Körpergewicht der Präparate oral behandelt.
Unbehandelte Tiere starben 3 bis 6 Tage post infektionem. Die Ueberlebensrate am 6.Tag post infektionem betrug bei unbehandelten Kontrolltieren etwa 5 %.

[1] = tested on: Dermatophyten und Schimmelpilze; Hefen; test: Antimycotic in-vitro activity, serial dilution test; format: cell-based; conditions: inoculum 5 x 10^4 germs/ml, 28°C, 24 h (yeasts) or 96 h (dermatophytes, moulds), stated relative to prior-art compound (A)
Experimental: Antimykotische in-vitro-Wirksamkeit
Die in-vitro-Wirksamkeit im Reihenverdünnungstest wird mit Keiminokula von durchschnittlich 5 x 10^4 Keimen /ml Substant durchgeführt. Als Nährmedium dienten: • a) für Dermatophyten und Schimmelpilze: Sabouraud's milieu d'epreuve • b) für Hefen: Isotonic Sensitest-Broth von Oxid.
Die Bebrütungstemperatur berug 28°C; Bebrütungsdauer war 24 Stunden bei Hefen und 96 Stunden bei Dermatophyten und Schimmelpilzen.

[2] = tested on: Trichophyton mentagrophytes; test: Antimicrobial in-vivo activity (local), experimental guinea pig trichophytosis model; set-up: species or system Meerschweinchen der Rasse Pirbright-white; conditions: once daily from day 3 p.i., 1 % solution in dimethyl sulfoxide:glycerol 1:4, result means only slight reddening and isolated scales
Description: Antimikrobielle in-vivo-Wirksamkeit (lokal) am Modell der experimetellen Meerschweinchen-Trichophytie
Weiße Meerschweinchen der Rasse Pirbright-white wurden auf dem geschorenen, nicht skarifizierten Rücken mit einer Mikro- und Makrokonidien-Suspension von Trichophyton mentagrophytes infiziert. Die infizierten Tiere wurden, beginnend am 3.Tag p.i., lx täglich mit 1%-iger Lösung der erfindungsgemäßen Präparate (in Dimethylsulfoxid:Glycerin=1:4) lokal behandelt.
Bei unbehandelten Tieren entwickelt sich innerhalb von 12 Tagen p.i. das typische Bild einer Dermatophytose mit Rötung, Schuppung und Haarausfall bis zum totalen Integument-Defekt an der Infektionsstelle.

Row | SMILES | Wirkung (Mäuse-Candidose) (Candida-Zellen) | antimykotische Wirkung [1] | Wirkung (Meerschweinchen-Trichophytie) [2]
1 | CC(C)(C)C(O)C(=Cc1ccc(Cl)cc1)n1ccnc1 (stereo not shown) [(B), reference compound] | keine Wirkung |  | 
2 | CCCCCCCC=C(C(=O)C(C)(C)C)n1ccnc1 [Beispiel 1] |  | bessere antimykotische Wirkung | Wirkung bis gute Wirkung
3 | CCCCCCCC=C(C(O)C(C)(C)C)n1ccnc1 (stereo not shown) [Beispiel 2] |  | bessere antimykotische Wirkung | Wirkung bis gute Wirkung
4 | CC(C)C=C(C(=O)C(C)(C)C)n1ccnc1 [Beispiel 5] | gute bis sehr gute Wirkung | bessere antimykotische Wirkung | 
5 | CC(C)(C)C=C(C(=O)C(C)(C)C)n1ccnc1 [Beispiel 7] | gute bis sehr gute Wirkung | bessere antimykotische Wirkung | 
6 | CCC(C)C=C(C(=O)C(C)(C)C)n1ccnc1 (stereo not shown) [Beispiel 8] | gute bis sehr gute Wirkung | bessere antimykotische Wirkung | Wirkung bis gute Wirkung
7 | CC(C)(C)C(=O)C(=CC1CCCC1)n1ccnc1 [Beispiel 10] |  | bessere antimykotische Wirkung | 
8 | CC=C(C(O)C(C)(C)C)n1ccnc1 (stereo not shown) [Beispiel 25] | gute bis sehr gute Wirkung |  | 
9 | CCC(C)C=C(C(O)C(C)(C)C)n1ccnc1 (stereo not shown) [Beispiel 27] |  |  | Wirkung bis gute Wirkung
10 | CC(C)(C)C(O)C(=CC1CCCC1)n1ccnc1 (stereo not shown) [Beispiel 28] |  | bessere antimykotische Wirkung | 
11 | CC(C)(C)C(O)C(=CC1c2ccccc2-c2ccccc21)n1ccnc1 (stereo not shown) [Beispiel 32] |  | bessere antimykotische Wirkung | 
12 | CC(C)(C)C(O)C(=CC1CCCCC1)n1ccnc1 (stereo not shown) [Beispiel 37] |  | bessere antimykotische Wirkung | 
13 | CC(C)(C)C(=O)C(=Cc1ccccc1Cl)n1ccnc1 [Verbindung (A), reference compound] | keine Wirkung |  | 

Reference: patent EP0041615A1, “Use of imidazolyl-vinyl ketones and alcohols as antimicrobial agents” (BAYER AG, priority 1980, dated 1981)
